Measured values from US12065654B2, “Plants having increased tolerance to herbicides” (BASF SE, priority 2014, dated 2024).

Columns and labels:
[1] = target: T1, Hordeum HPPD (SEQ ID NO:2) (Hordeum vulgare, UniProt O48604, A164G/R146V/R147D/R148G); assay: HPPD activity assay; type: biochemical; conditions: Hordeum HPPD
T1 construct: His-tag (N); made in house; host or cells: E. coli BL21 (DE3)
Description: (§1) The activity assay for HPPD is based on the analysis of homogentisic acid by reversed phase HPLC.
(§2) The assay mixture can contain 150 mM potassium phosphate buffer pH 7.0, 50 mM L-ascorbic acid, 100 μM Catalase (Sigma-Aldrich), 1 μM FeSO4 and 0.2 units of purified HPPD enzyme in a total volume of 505 μl. 1 unit is defined as the amount of enzyme that is required to produce 1 nmol of HGA per minute at 20° C.
(§3) The reaction is allowed to proceed for 45 min at room temperature. The reaction is stopped by the addition of 50 μl of 4.5 M phosphoric acid. The sample is filtered using a […] pore size PVDF filtration device. 5 μl of the cleared sample is analyzed on an UPLC HSS T3 column (particle size 1.8 μm, dimensions 2, 1×50 mm; Waters) by isocratic elution using 90% 20 mM NaH2PO4 pH 2.2, 10% methanol (v/v).
(§4) HGA is detected electrochemically at 750 mV (mode: DC; polarity: positive) and quantified by integrating peak areas (Empower software; Waters).
(§5) Inhibitors are dissolved in DMSO (dimethylsulfoxide) to a concentration of 0.5 mM. From this stock solution serial five-fold dilutions are prepared in DMSO, which are used in the assay. The respective inhibitor solution accounts for 1% of the assay volume. Thus, final inhibitor concentrations range from 5 μM to 320 pM, respectively. Activities are normalized by setting the uninhibited enzyme activity to 100%. IC50 values are calculated using non-linear regression.
(§6) Using methods which are described in the above examples or well known in the art, purified recombinant wild-type HPPD enzymes are characterized with respect to their kinetic properties and sensitivity towards HPPD inhibiting herbicides. Apparent michaelis constants (Km) and maximal reaction velocities (Vmax) are calculated by non-linear regression with the software GraphPad Prism 5 (GraphPad Software, La Jolla, USA) using a substrate inhibition model. […] Weighted means (by standard error) of Km and IC50 values are calculated from at least three independent experiments. The Cheng-Prusoff equation for competitive inhibition (Cheng, Y. C.; Prusoff, W. H. Biochem Pharmacol 1973, 22, 3099-3108) is used to calculate dissociation constants (Ki).
(§7) Field performance of the HPPD enzyme, which is used as a herbicide tolerance trait may depend not only on its lack of sensitivity towards HPPD inhibiting herbicides but also on its activity. To assess the potential performance of a herbicide tolerance trait a tolerance index (TI) is calculated using the following formula: […]
(§8) Easy comparison and ranking of each trait is enabled by normalizing tolerance indexes on Arabidopsis wild-type HPPD.

[2] = target: T2, Arabidopsis HPPD (SEQ ID NO:53) (Arabidopsis thaliana, UniProt P93836); assay: HPPD activity assay (HPLC of homogentisic acid); type: biochemical; conditions: Arabidopsis HPPD
T2 construct: His6 (N); made in house; host or cells: E. coli BL21 (DE3)
T2 sequence (P93836 1-445): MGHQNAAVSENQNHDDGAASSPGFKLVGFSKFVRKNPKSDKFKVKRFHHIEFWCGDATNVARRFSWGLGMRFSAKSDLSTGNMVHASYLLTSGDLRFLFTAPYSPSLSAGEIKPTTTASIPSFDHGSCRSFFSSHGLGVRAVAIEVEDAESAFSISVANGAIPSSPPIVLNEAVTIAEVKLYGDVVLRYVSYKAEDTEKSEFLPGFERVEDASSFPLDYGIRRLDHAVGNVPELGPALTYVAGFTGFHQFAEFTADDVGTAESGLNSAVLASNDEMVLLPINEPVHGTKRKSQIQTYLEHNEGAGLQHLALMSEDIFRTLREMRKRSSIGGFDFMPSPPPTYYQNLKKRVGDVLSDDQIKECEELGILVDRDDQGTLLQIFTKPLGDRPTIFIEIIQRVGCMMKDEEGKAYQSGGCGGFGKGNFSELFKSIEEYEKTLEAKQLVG
Description: as §1, §2, §3, §4, §5, §6, §7, §8

[3] = turnover number, substrate 4-HPP
[4] = read-out: Km [μM] (4-HPP), apparent michaelis constant

T1 sequence (O48604 whole entry R146V/R147D/R148G/A164G): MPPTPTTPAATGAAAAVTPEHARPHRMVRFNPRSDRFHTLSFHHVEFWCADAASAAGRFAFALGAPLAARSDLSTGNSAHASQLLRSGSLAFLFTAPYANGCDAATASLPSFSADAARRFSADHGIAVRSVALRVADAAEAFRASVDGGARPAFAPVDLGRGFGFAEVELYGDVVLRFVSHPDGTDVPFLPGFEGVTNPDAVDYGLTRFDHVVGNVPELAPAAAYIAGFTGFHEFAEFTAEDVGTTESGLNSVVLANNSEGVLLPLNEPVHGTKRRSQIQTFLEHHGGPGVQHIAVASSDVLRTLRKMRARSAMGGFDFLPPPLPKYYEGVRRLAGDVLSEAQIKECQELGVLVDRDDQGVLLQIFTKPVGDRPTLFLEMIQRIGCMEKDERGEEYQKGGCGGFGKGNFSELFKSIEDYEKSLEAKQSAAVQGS

For O=C(O)C(=O)Cc1ccc(O)cc1 [Inhibitor 4-HPP, 4-hydroxyphenylpyruvate], the “kcat” value [1, 3] was 11.5 s⁻¹, the Km [1, 4] was 26 µM and the “kcat” value [2, 3] was 12.9 s⁻¹. The Km [2, 4] was 13 µM.
